Assay results from PMC4595200 (BMC Plant Biology, 2015).

Target: T1, truncated AtAPC2 (N-terminally truncated AtAPC2) (Arabidopsis thaliana, UniProt Q9FI43)
T1 construct: gene APC2; transmembrane carrier domain from residue 164 to C-terminus, EF-hand N-terminal domain removed, N-terminal His tag (pET16b), E. coli Rosetta 2 inclusion bodies, reconstituted in liposomes
T1 sequence (Q9FI43 164-487): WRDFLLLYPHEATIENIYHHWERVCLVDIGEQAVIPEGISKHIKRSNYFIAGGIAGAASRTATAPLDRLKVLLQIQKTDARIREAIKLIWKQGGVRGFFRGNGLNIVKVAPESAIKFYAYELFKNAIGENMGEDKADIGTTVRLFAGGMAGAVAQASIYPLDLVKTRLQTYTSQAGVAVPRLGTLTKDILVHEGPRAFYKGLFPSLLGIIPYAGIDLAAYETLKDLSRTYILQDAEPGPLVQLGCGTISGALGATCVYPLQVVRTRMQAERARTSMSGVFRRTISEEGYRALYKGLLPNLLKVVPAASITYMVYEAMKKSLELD
Assay: radiolabelled uptake into proteoliposomes
Type: biochemical
Conditions: pH 7.5, 30 °C, labelled compound

Nc1ncnc2c1ncn2[C@@H]1O[C@H](COP(=O)(O)OP(=O)(O)O)[C@@H](O)[C@H]1O [ADP]
radiolabelled uptake into proteoliposomes (ADP import / ATP export (ATP-loaded), 5 min): ADP/ATP exchange of both, full-length and truncated, AtAPC2 variants remained more or less unaltered

Nc1ncnc2c1ncn2[C@@H]1O[C@H](COP(=O)(O)OP(=O)(O)OP(=O)(O)O)[C@@H](O)[C@H]1O [ATP]
radiolabelled uptake into proteoliposomes (ATP import / Pi export (Pi-loaded), 50 μM ATP): ATP uptake measurements verified that truncated AtAPC2 is functional
